Consider 30 compounds from patent US20100076015A1, “Aminopyridine Derivatives” (VANTIA LIMITED, priority 2008, published 2010).

Structures are written as SMILES.

For this experiment, the target named is T1, Human KLK1 (Homo sapiens, UniProt P06870).
T1 construct: purchased Callbiochem (Calbiochem)
T1 sequence (P06870 25-262): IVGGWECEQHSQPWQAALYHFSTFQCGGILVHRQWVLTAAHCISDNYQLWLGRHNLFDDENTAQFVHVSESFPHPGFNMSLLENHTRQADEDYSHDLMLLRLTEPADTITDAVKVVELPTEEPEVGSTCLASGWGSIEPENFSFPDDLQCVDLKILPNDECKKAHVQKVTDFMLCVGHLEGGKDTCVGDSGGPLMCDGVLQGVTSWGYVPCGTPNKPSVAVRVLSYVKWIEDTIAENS
The experiment can be described thus: Determination of the IC50 for KLK1 (fluorogenic substrate H-DVal-Leu-Arg-AFC). In kind it is biochemical. As to conditions: 37° C. The procedure, abridged:
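Human KLK1 incubated at 37 °C with fluorogenic substrate H-DVal-Leu-Arg-AFC and a range of test compound concentrations. Residual activity was taken as initial reaction rate from absorbance change at 410 nm, and the IC50 derived from it.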
Usually IC50 stands for the concentration needed to halve the response being measured. Read a low IC50 as greater potency in that assay. `Cc1cc(C)c(C(=O)N[C@@H](CC2CCCCC2)C(=O)NCc2ccc(N)nc2)[nH]1` [Example 238, 3,5-Dimethyl-1H-pyrrole-2-carboxylic acid {(S)-1-[(6-amino-pyridin-3-ylmethyl)-carbamoyl]-2-cyclohexyl-ethyl}-amide] showed an IC50 of 35.2 nM. With `CC(C)N1CCC[C@@H]1C(=O)N[C@@H](Cc1cccc2ccccc12)C(=O)NCc1ccc(N)nc1` [Example 118, (R)-1-Isopropyl-pyrrolidine-2-carboxylic acid {(S)-1-[(6-amino-pyridin-3-ylmethyl)-carbamoyl]-2-naphthalen-1-yl-ethyl}-amide] the figure was 2.1 nM; with `Cc1nc(N)ccc1CNC(=O)[C@H](Cc1ccc(Cl)c(Cl)c1)NC(=O)[C@H]1CC(F)(F)CN1` [Example 192, (R)-4,4-Difluoro-pyrrolidine-2-carboxylic acid [(S)-1-[(6-amino-2-methyl-pyridin-3-ylmethyl)-carbamoyl]-2-(3,4-dichloro-phenyl)-ethyl]-amide], 60.4 nM. With `CC(C)CN(C)CC(=O)N[C@@H](Cc1ccc(Cl)c(Cl)c1)C(=O)NCc1ccc(N)nc1` [Example 154, (S)—N-(6-Amino-pyridin-3-ylmethyl)-3-(3,4-dichloro-phenyl)-2-[2-(isobutyl-methyl-amino)-acetylamino]-propionamide] the figure was 216 nM. Next, `Nc1ccc(CNC(=O)[C@H](Cc2cccc(F)c2)NC(=O)c2cc3ccccc3[nH]2)cn1` [Example 311, 1H-Indole-2-carboxylic acid [(S)-1-[(6-amino-pyridin-3-ylmethyl)-carbamoyl]-2-(3-fluoro-phenyl)-ethyl]-amide]: 46.5 nM; `Nc1ccc(CNC(=O)[C@H](Cc2ccc(C(F)(F)F)cc2)NC(=O)CN2CCCCC2)cn1` [Example 423, (S)—N-(6-Amino-pyridin-3-ylmethyl)-2-(2-piperidin-1-yl-acetylamino)-3-(4-trifluoromethyl-phenyl)-propionamide]: 129 nM. `Nc1ccc(CNC(=O)[C@H](Cc2ccc(F)c(F)c2)NC(=O)[C@H]2CCCN2)cn1` [Example 72, (R)-Pyrrolidine-2-carboxylic acid [(S)-1-[(6-amino-pyridin-3-ylmethyl)-carbamoyl]-2-(3,4-difluoro-phenyl)-ethyl]-amide] yielded an IC50 of 7.2 nM. With `CCN(C)[C@@H](C)C(=O)N[C@@H](CC1CCCCC1)C(=O)NCc1ccc(N)nc1` [Example 384, (S)—N-{(S)-1-[(6-Amino-pyridin-3-ylmethyl)-carbamoyl]-2-cyclohexyl-ethyl}-2-(ethyl-methyl-amino)-propionamide] the figure was 9.7 nM; with `Cc1cc(C)c(C(=O)N[C@@H](Cc2c(F)c(F)c(F)c(F)c2F)C(=O)NCc2ccc(N)nc2)[nH]1` [Example 251, 3,5-Dimethyl-1H-pyrrole-2-carboxylic acid {(S)-1-[(6-amino-pyridin-3-ylmethyl)-carbamoyl]-2-pentafluorophenyl-ethyl}-amide], 128 nM; with `CCC(C)[C@@H](NC)C(=O)N[C@@H](Cc1cccc2ccccc12)C(=O)NCc1ccc(N)nc1C` (stereo partly drawn) [Example 203, (R)-3-Methyl-2-methylamino-pentanoic acid {(S)-1-[(6-amino-2-methyl-pyridin-3-ylmethyl)-carbamoyl]-2-naphthalen-1-yl-ethyl}-amide], 4.5 nM.

As for `CCN(CC)[C@@H](C)C(=O)N[C@@H](Cc1cccc(C)c1)C(=O)NCc1ccc(N)nc1` [Example 415, (S)—N-{(S)-1-[(6-Amino-pyridin-3-ylmethyl)-carbamoyl]-2-m-tolyl-ethyl}-2-diethylamino-propionamide], inhibition was half-maximal at 5.3 nM (IC50).

`CC(C)N(C(C)C)[C@@H](C)C(=O)N[C@@H](Cc1ccc(F)c(F)c1)C(=O)NCc1ccc(N)nc1` [Example 350, (S)—N-[(S)-1-[(6-Amino-pyridin-3-ylmethyl)-carbamoyl]-2-(3,4-difluoro-phenyl)-ethyl]-2-diisopropylamino-propionamide] came in with an IC50 of 28.5 nM.

`CCC(C)[C@@H](NC)C(=O)N[C@@H](CC1CCCCC1)C(=O)NCc1ccc(N)nc1` (stereo partly drawn) [Example 21, (R)-3-Methyl-2-methylamino-pentanoic acid {(S)-1-[(6-amino-pyridin-3-ylmethyl)-carbamoyl]-2-cyclohexyl-ethyl}-amide] gave an IC50 of 22.8 nM. With `Cc1cc(C)c(C(=O)N[C@@H](Cc2c[nH]c3ccccc23)C(=O)NCc2ccc(N)nc2)[nH]1` [Example 241, 3,5-Dimethyl-1H-pyrrole-2-carboxylic acid [(S)-1-[(6-amino-pyridin-3-ylmethyl)-carbamoyl]-2-(1H-indol-3-yl)-ethyl]-amide] the figure was 3.8 nM; with `CS(=O)(=O)N1CCC[C@@H]1C(=O)N[C@@H](Cc1ccc(Cl)c(Cl)c1)C(=O)NCc1ccc(N)nc1` [Example 210, (R)-1-Methanesulfonyl-pyrrolidine-2-carboxylic acid [(S)-1-[(6-amino-pyridin-3-ylmethyl)-carbamoyl]-2-(3,4-dichloro-phenyl)-ethyl]-amide], 39 nM; with `Cc1ccc(C[C@H](NC(=O)[C@H]2CCCN2C(C)C)C(=O)NCc2ccc(N)nc2)cc1` [Example 123, (R)-1-Isopropyl-pyrrolidine-2-carboxylic acid {(S)-1-[(6-amino-pyridin-3-ylmethyl)-carbamoyl]-2-p-tolyl-ethyl}-amide], 1.4 nM.

In turn, `Cc1[nH]c(C(=O)N[C@@H](Cc2cccc(C(F)(F)F)c2)C(=O)NCc2ccc(N)nc2)c(C)c1C` [Example 230, 3,4,5-Trimethyl-1H-pyrrole-2-carboxylic acid [(S)-1-[(6-amino-pyridin-3-ylmethyl)-carbamoyl]-2-(3-trifluoromethyl-phenyl)-ethyl]-amide] returned an IC50 of 20.3 nM. With `Nc1ccc(CNC(=O)[C@H](Cc2ccc(Cl)c(Cl)c2)NC(=O)[C@H]2CCCN2)cn1` [Example 55, (R)-Pyrrolidine-2-carboxylic acid [(S)-1-[(6-amino-pyridin-3-ylmethyl)-carbamoyl]-2-(3,4-dichloro-phenyl)-ethyl]-amide], the IC50 is 0.7 nM. With `CCC(C)[C@H](C(=O)N[C@@H](Cc1cccc(Cl)c1)C(=O)NCc1ccc(N)nc1)N(C)C` (stereo partly drawn) [Example 405, (R)-2-Dimethylamino-3-methyl-pentanoic acid [(S)-1-[(6-amino-pyridin-3-ylmethyl)-carbamoyl]-2-(3-chloro-phenyl)-ethyl]-amide] the figure was 7.1 nM; with `CN[C@H](C)C(=O)N[C@@H](Cc1ccc(F)c(F)c1)C(=O)NCc1ccc(N)nc1` [Example 84, (R)—N-[(S)-1-[(6-Amino-pyridin-3-ylmethyl)-carbamoyl]-2-(3,4-difluoro-phenyl)-ethyl]-2-methylamino-propionamide], 8 nM; with `Nc1ccc(CNC(=O)[C@H](Cc2ccc(Cl)c(Cl)c2)NC(=O)[C@H](N)CC2CCCCC2)cn1` [Example 68, (R)-2-Amino-N-[(S)-1-[(6-amino-pyridin-3-ylmethyl)-carbamoyl]-2-(3,4-dichloro-phenyl)-ethyl]-3-cyclohexyl-propionamide], 9.2 nM. Next, `Cc1nc(N)ccc1CNC(=O)[C@H](CC1CCCC2CCCCC21)NC(=O)[C@H](N)C(C)C` (stereo partly drawn) [Example 186, (R)-2-Amino-N-[(S)-1-[(6-amino-2-methyl-pyridin-3-ylmethyl)-carbamoyl]-2-(decahydro-naphthalen-1-yl)-ethyl]-3-methyl-butyramide]: 0.81 nM; `CC(C)[C@@H](N)C(=O)N[C@@H](CC1CCCC2CCCCC21)C(=O)NCc1ccc(N)nc1` (stereo partly drawn) [Example 14, (R)-2-Amino-N-[(S)-1-[(6-amino-pyridin-3-ylmethyl)-carbamoyl]-2-(decahydro-naphthalen-1-yl)-ethyl]-3-methyl-butyramide]: 0.96 nM; `CN1CCC[C@@H]1C(=O)N[C@@H](Cc1cc(F)cc(F)c1)C(=O)NCc1ccc(N)nc1` [Example 96, (R)-1-Methyl-pyrrolidine-2-carboxylic acid [(S)-1-[(6-amino-pyridin-3-ylmethyl)-carbamoyl]-2-(3,5-difluoro-phenyl)-ethyl]-amide]: 5.5 nM. With `Cc1cccc(C[C@H](NC(=O)[C@H]2CCCN2C(C)C)C(=O)NCc2ccc(N)nc2)c1` [Example 122, (R)-1-Isopropyl-pyrrolidine-2-carboxylic acid {(S)-1-[(6-amino-pyridin-3-ylmethyl)-carbamoyl]-2-m-tolyl-ethyl}-amide] the figure was 1.8 nM; with `Cc1cc[nH]c1C(=O)N[C@@H](Cc1ccc(C(F)(F)F)cc1)C(=O)NCc1ccc(N)nc1` [Example 258, 3-Methyl-1H-pyrrole-2-carboxylic acid [(S)-1-[(6-amino-pyridin-3-ylmethyl)-carbamoyl]-2-(4-trifluoromethyl-phenyl)-ethyl]-amide], 10.3 nM. In turn, `CCC(C)[C@@H](NC)C(=O)N[C@@H](Cc1cc(F)c(F)cc1F)C(=O)NCc1ccc(N)nc1` (stereo partly drawn) [Example 48, (R)-3-Methyl-2-methylamino-pentanoic acid [(S)-1-[(6-amino-pyridin-3-ylmethyl)-carbamoyl]-2-(2,4,5-trifluoro-phenyl)-ethyl]-amide] showed an IC50 of 8 nM. With `CCCN(C)[C@@H](C)C(=O)N[C@@H](Cc1ccc(F)c(F)c1)C(=O)NCc1ccc(N)nc1` [Example 346, (S)—N-[(S)-1-[(6-Amino-pyridin-3-ylmethyl)-carbamoyl]-2-(3,4-difluoro-phenyl)-ethyl]-2-(methyl-propyl-amino)-propionamide] the figure was 21.3 nM; with `CCN(CC)[C@@H](C)C(=O)N[C@@H](Cc1cccc(C(F)(F)F)c1)C(=O)NCc1ccc(N)nc1` [Example 418, (S)—N-[(S)-1-[(6-Amino-pyridin-3-ylmethyl)-carbamoyl]-2-(3-trifluoromethyl-phenyl)-ethyl]-2-diethylamino-propionamide], 2 nM. With `CC(C)C[C@@H](N)C(=O)N[C@@H](CC1CCCC2CCCCC21)C(=O)NCc1ccc(N)nc1` (stereo partly drawn) [Example 16, (R)-2-Amino-4-methyl-pentanoic acid [(S)-1-[(6-amino-pyridin-3-ylmethyl)-carbamoyl]-2-(decahydro-naphthalen-1-yl)-ethyl]-amide], the half-maximal inhibitory concentration (IC50) was 1.1 nM.
